Measurements published in article PMC6947424, “New Targeted Gold Nanorods for the Treatment of Glioblastoma by Photodynamic Therapy” (Journal of Clinical Medicine, 2019).
Several values for one entry are separate records, joined by “and”; a condition that tells them apart may be missing. Equal values may be shown once. Residues, ends and D or L forms follow the SMILES beside them. *: point of attachment. Pyropheophorbide(a) = C=Cc1c(C)c2cc3nc(c4c5[nH]c(cc6nc(cc1[nH]2)C(C)=C6CC)c(C)c5C(=O)C4)[C@@H](CCC(=O)*)[C@@H]3C; Hexanoyl(6-maleimido) = O=C1C=CC(=O)N1CCCCCC(=O)*

Assays:
[1] = UV-vis absorption; assay type: physicochemical; details: ethanol, Soret band
Experimental: (§1) The setup and the protocol to evaluate the photophysical characterizations including the absorption, fluorescence, and singlet oxygen emission spectra in addition to the fluorescence and singlet oxygen lifetimes have been previously described by our team. The absorption spectra were recorded on a UV-3600 UV–vis double beam spectrophotometer (Shimadzu, Marne La Vallée, France) in the wavelength range of 200-800 nm. The measurements were performed on the molecules dispersed in ethanol in quartz cuvettes with an optical path of 10 mm. The fluorescence spectra were recorded on a Horiba Jobin Yvon Fluorolog-3 (FL3-222) spectrofluorimeter equipped with a 450W xenon lamp, a thermostated cell compartment (25 °C), a R928 (Hamamatsu, Massy, France) UV–vis photomultiplier and a liquid nitrogen cooled InGaAs infrared detector (DSS-16A020L Electro-Optical System Inc., Phoenixville, PA, USA). The excitation spectrometer used is a SPEX double grating monochromator (1200 grooves per mm blazed at 330 nm). The fluorescence was measured using the UV–vis detector through a SPEX double grating monochromator (600 grooves per mm blazed at 500 nm). The singlet oxygen production was measured using the IR detector through a SPEX double grating monochromator (600 grooves per mm blazed at 1 μm).
The photophysical properties at the different synthetic stages of the hybrid AuNRs@PEG-MI-K(Pyro)DKPPR-OH, including the peptide derivatives as intermediates, were studied and compared to that of free Pyro. These properties include the UV-vis absorption, the florescence emission (quantum yield (Φf) and lifetime (τf)) and the ^1O2 production (quantum yield (ΦΔ) and lifetime (τΔ)). To determine these properties, the optical density (OD) of the Soret band of the Pyro component (412 nm) was adjusted at about 0.2. Controls, such as TPP dissolved in toluene, as a standard for fluorescence emission, and RB dissolved in ethanol, as a standard for ^1O2 production, were used. Ethanol was chosen to dissolve the studied molecules since it is a convenient solvent for the detection of fluorescence and ^1O2 emission. […]

[2] = Singlet oxygen production (quantum yield and lifetime); assay type: physicochemical; details: ethanol; for ΦΔ (singlet oxygen quantum yield): excitation 412 nm, detection 1270 nm, Rose Bengal as reference
Experimental: as §1
Fluorescence quantum yields (Φf) were determined using a tetraphenyl porphyrin (TPP) solution as the fluorescence standard (Φf = 0.11 in toluene, taking into account solvent refractive index and absorption efficiencies. For the direct determination of ^1O2 quantum yield (ΦΔ), excitation was performed with a Xe-arc, the light was separated in a SPEX 1680, 0.22 µm double monochromator. Detection at 1270 nm was carried out through a PTI S/N 1565 monochromator and the emission was monitored by a liquid nitrogen cooled Ge-detector (EO-817L, North Coast Scientific Co, OH, USA). Rose Bengal (RB) was chosen as a reference solution because of its high ^1O2 quantum yield in EtOH (ΦΔ = 0.68). The absorbance value at the excitation wavelengths (412 nm) of both the reference and the sample solutions were set to approximately 0.2 by dilution. The samples were all prepared in ethanol.
The quantum yield of singlet oxygen production is determined by the equation (2):(2) ΦΔ=ΦΔ0×I/I0×[…] where ΦΔ and ΦΔ0, I and I0, DO and DO0 are the luminescence quantum yields of singlet oxygen, the luminescence intensities and the optical densities of the sample and reference, respectively.
Fluorescence lifetimes were measured by Time-Correlated Single Photon Counting (TCSPC) using for excitation a pulsed laser diode LDH-P-C-405 coupled with a PDL 800-D driver (both from PicoQuant GmbH, Berlin, Germany) emitting at 408 nm (FWHM < 70 ps, 1 MHz) and an SPCM-AQR-15 avalanche photodiode (EG & G, Vaudreuil, Canada) coupled with a 650 nm (±10 nm) interference long-wave pass filter as the detection system. The acquisition system was a PicoHarp 300 module with a PHR-800 four-channel router (both from PicoQuant GmbH, Berlin, Germany). Fluorescence decays were recorded using the single photon counting method (four optical faced quartz cells for pure products in ethanol). Data were collected, and up to 1000 counts were accumulated in the maximum channel and analyzed using Fluofit TCSPC software (PicoQuant GmbH, Berlin, Germany) based on iterative reconvolution using a Levensberg-Marquandt algorithm. Singlet oxygen lifetime measurements have been performed on a TEMPRO-01 spectrophotometer (Horiba Jobin Yvon, Palaiseau, France). The apparatus was composed of a pulsed diode excitation source SpectraLED-415 emitting at 415 nm, a cuvette compartment, a Seya–Namioka type emission monochromator (600–2000 nm), and an H10330-45 near-infrared photomultiplier tube with a thermoelectric cooler (Hamamatsu, Massy, France) as the detection system. The system was monitored by a single photon counting controller FluoroHub-B and the software DataStation and DAS6 (Horiba Jobin Yvon, Palaiseau, France). […]

| SMILES | λmax [1] | τΔ (singlet oxygen lifetime) [2] | ΦΔ (singlet oxygen quantum yield) [2] |
| --- | --- | --- | --- |
| C=Cc1c(C)c2cc3nc(c4c5[nH]c(cc6nc(cc1[nH]2)C(C)=C6CC)c(C)c5C(=O)C4)[C@@H](CCC(=O)O)[C@@H]3C [Pyro, pyropheophorbide-a, reference compound] | 412 nm | 14 μs | 0.5 and 0.51 |
| C=Cc1c(C)c2cc3nc(c4c5[nH]c(cc6nc(cc1[nH]2)C(C)=C6CC)c(C)c5C(=O)C4)[C@@H](CCC(=O)NCCCC[C@H](NC(=O)CCCCCN1C(=O)C=CC1=O)C(=O)N[C@@H](CC(=O)O)C(=O)N[C@@H](CCCCN)C(=O)N1CCC[C@H]1C(=O)N1CCC[C@H]1C(=O)N[C@@H](CCCNC(=N)N)C(=O)O)[C@@H]3C [MI-K(Pyro)DKPPR-OH] ({Hexanoyl(6-maleimido)}-K(Pyropheophorbide(a))DKPPR-OH) | 412 nm | 13 μs | 0.39 |
